This experiment concerns DDB2 degradation by CUL4A in MEF cells expressing FLAG-tagged DDB2. Description: cell-based assay for DDB2 degradation by CUL4A following UV. On the set-up: species or system Mouse. The following applies: positive control, FIG. 2 lane 3. From the text:
FIG. 2 is an image which depicts experimental data illustrating the results of a cell-based DDB2 degradation assay. The tested compounds, which are described in detail in FIGS. 7-11, included the following small molecule compounds: PZ-104 (lane 1); PZ-108 (lane 2); PZ-106 (lane 3); PZ-101 (lane 4); PZ-103 (lane 5); PZ-501 (lane 6); PZ-202 (lane 7); PZ-203 (lane 8); PZ-201 (lane 9); PZ-301 (lane 10); PZ-305 (lane 11); PZ-303 (lane 12); PZ-601 (lane 13); PZ-701 (lane 14); PZ-701 (lane 15); PZ-901 (lane 16); PZ-1001 (lane 17); PZ-1101 (lane 18); PZ-1201 (lane 19); PZ-401 (lane IV1); PZ-402 (lane IV2); and PZ-403 (IV3). MG132, a proteasome inhibitor that blocks UV-induced DDB2 degradation, was a positive control. Tubulin levels were determined by Western blotting as a loading control. […]
A cell-based assay for DDB2 degradation by CUL4A following exposure to UV light was used as a second validation assay to evaluate the hit compounds. […] Three hours post UV exposure, cells were lysed in 1×SDS buffer and protein concentrations were measured by the BCA kit. F-DDB2 levels were detected by SDS PAGE and Western blotting, and tubulin levels were used as loading control. […]

Where a SMILES comes first, the peptide text is derived from it. The star is where a group is joined. Cbz = O=C(OCc1ccccc1)*

One compound from patent US10617683B2, “Inhibitors of CRL4 ubiquitin ligase and uses thereof” (Cornell University, priority 2012, dated 2020) can be followed below.

For `CC(C)C[C@@H](C=O)NC(=O)[C@H](CC(C)C)NC(=O)[C@H](CC(C)C)NC(=O)OCc1ccccc1` [MG132] (Cbz-Leu-Leu-Leu-aldehyde), the “UV-induced DDB2 degradation” value is “blocks”.
